Test [1] is described as follows: Cecal ligation and puncture model in mice. The format is in vivo, BALBc mice. The procedure: The cecal ligation puncture (“CLP”) procedure was derived from a modification of standard methods previously described (Opal S M, et al., Shock 15(4):285-290, 2001). Female, non-pregnant, specific pathogen-free, Albino BALBc mice (20-25 gm) were used in the experiment. […] Animals were allowed to eat and drink sterile water on an ad libitum basis until 12 h before surgery when food was withheld until after the surgical procedure.
Anesthetized animals (methoxyflurane, Mallinckodt Veterninary Inc., Mundeline, Ill.) had the abdominal skin shaved and a midline, abdominal incision was made. The cecum was exteriorized and distended using intraluminal contents from the colon. The cecum was then ligated below the ileocecal valve and punctured twice using a 23-gauge sterile needle. The cecum was returned to the peritoneal cavity and the transversalis fascia was closed along with the skin incision. The skin incision was covered with topical bacitracin ointment. The animals were given a single […] dose of trovafloxacin (20 mg/kg IM) immediately post-operatively and a 1-mL subcutaneous dose of PBS was given as fluid resuscitation. […] All animals underwent necropsy examination for histological evidence of organ injury, pathology scoring of intestinal mucosa, and quantitative bacteriology.
Differences in survival time between groups were analyzed by Kaplan-Meier survival plots and log-rank testing. Other parameters were measured using a Mann-Whitney U-Test for 2 groups or the Kruskal-Wallis one way analysis of variance for 3 or more groups. A p value of <0.05 was considered significant. All data is presented as mean and standard deviation.

Test [2] concerns CK. Put plainly: CK activity in lysate of ERα expressing HAECT-1 cells. Format: cell-based, human. The protocol:
(§1) (A) The effect of compound 67 on NF-κB mediated luciferase reporter activity in HAECT-1 cells expressing ERα. […] (C) The effect of compound 67 on the human IL-6 promoter luciferase reporter activity in HAECT-1 cells expressing either ERα (squares) or ERβ (diamonds). (D) The remaining lysate from (A) was used to determine CK activity.
(§2) HAECT-1 cells (Chadwick C C, et al., Proc Natl Acad Sciences, 2005, 102(7): 2543-2548) were cultured in EGM (GIBCO, Rockville, Md.) containing 10% FBS, 1% GlutaMAX and 0.1% Antimycotic-Antibiotic in Falcon T-175 culture flasks at 34° C. in 5% CO2 and infected for four hours with Ad5-wt-ER virus. After overnight recovery, the cells were infected for 2 hours with the Ad5-3x(NFκB).Luc or Ad5-IL6.Luc virus. Compound 67 and 2 ng/ml IL-1 were added to the cells for 15-20 h and the cell lysate was assayed for luciferase activity and evaluated for CK expression (Stanbio Laboratories, Texas). The values are reported as mean±SEM with n=4 from at least 3 independent experiments.

The test system of test [3] is ERβ. Put plainly: Reporter activity in HAECT-1 cells expressing ERβ. Format: cell-based, human. Particulars: FIG. 1C. The procedure:
as §1, §2

Test [4] relates to NF-κB. Nature of the test: IL-1β stimulated NF-κB reporter activity in ERα expressing HAECT-1 cells. Format: cell-based, human. Particulars: ERα expressing HAECT-1 cells, FIG. 1A. The protocol:
as §2

In test [5] the test system is IL-6. Put plainly: IL-6 expression (ELISA) in Ad5-wt-ERα infected HAECT-1 cells (Table 1). Format: cell-based, human.
Test [6] has as its system Pseudomonas aeruginosa 12.4.4. Put plainly: Neutropenic rat model of Pseudomonas sepsis. The format is in vivo, Sprague-Dawley rats. The protocol:
The neutropenic rat model of pseudomonas sepsis has been previously described (Opal S M, et al., Shock 15(4):285-290, 2001). The experiments were conducted in specific pathogen-free female, Albino, Sprague-Dawley rats (Charles River Breeding Laboratories, Wilmington, Mass.) weighing 150-200 grams at the beginning of the experiments. Animals were treated with cefamandole (100 mg/kg intramuscularly daily) followed by oral colonization with Pseudomonas aeruginosa 12.4.4 (immunotype 6, A. McManus, San Antonio, Tex.) by orogastric feeding of 10^6 bacterial colony forming units at time 0, 48, and 96 hours.
Cyclophosphamide (Bristol-Myers, Evansville, Ind.) was given intraperitoneally at a dose of 150 mg/kg at time 0, and 50 mg/kg interperitoneally at 72 hours. Animals were followed daily with clinical examination of body temperature using a non-contact, digital, infrared thermometer (Horiba Instruments-Marksen Sciences, Phoenix, Ariz.) and body weight. Compound 67 (50 mg/kg) or corn oil control (n=12 in both groups) was administered orally by orogastric feeding beginning on day 4 after the first dose of cyclophosphamide and continuing for 8 days for the survival study. In an additional set of experiments, compound 1 (50 mg/kg) or control (n=8 in both groups) was administered every other day (day 4, 6, 8) and animals were sacrificed at day 8 for histopathologic studies. The distal 10 centimeters of ileum were resected and used for histopathological examination. The lumen was washed with phosphate buffered saline to remove residual particulate material prior to analysis and fixation. The mucosal surface epithelium was sampled for electromicroscopic studies and placed in gluteraldehyde fixative at the time of sacrifice. A 10 mm segment of ileal tissue was utilized for mucosal mass measurement.
Animals were assessed clinically and pathologically by daily body weight, body temperature, presence of bacteremia, circulating endotoxin levels, and pathologic evidence of damage to the gastrointestinal epithelium and liver by light microscopy and electron microscopy. The investigators performing the animal experiments were not blinded to the treatment assignment; however, an independent pathologist who was unaware of the treatment assignment for each animal performed the light microscopy and electron microscopy interpretation. A pathological injury scale of 0-4 was used to assess the degree of mucosal thinning, ulceration, and disruption.

Entries after “also recorded” stand apart in the source; their conditions may differ.

For the compound `COc1ccccc1[C@H](c1cccc2ccccc12)[C@@](C)(C#N)C(=O)N1CCC(c2cccc(C(F)(F)F)c2)CC1` [Example 67, (S,S)-3-(2-methoxyphenyl)-2-methyl-3-(1-naphthyl)-2-({4-[3-(trifluoromethyl)phenyl]piperidin-1-yl}carbonyl)propanenitrile], the “survival vs vehicle control (Kaplan-Meier)” value in test [1] (50 mg/kg at 0, 24 and 48 hours after CLP, 7 days, FIG. 5) is on record as “significant survival advantage; also recorded: significantly greater than control”. The “histopathologic scores of small bowel intestinal mucosa” value in test [1] (50 mg/kg, p<0.05 vs vehicle control) was “significant preservation of mucosal integrity”. The “systemic cytokine release and endotoxin levels” value in test [1] (50 mg/kg, vs vehicle control, p=ns) is listed as “did not differ”. In addition, in test [2] (at 1 μM), the “elevation of CK activity” value is reported as “approximately 20%”. Moreover, in test [2] (compared with E2, FIG. 1D), the “stimulation of CK expression” value is on record as “did not stimulate CK expression comparable to E2”. Further, the “inhibition of NF-κB transcriptional activity in the presence of ERβ” value in test [3] was “little inhibition”. Moreover, in test [4], the “efficacy compared with E2, NF-κB reporter” value worked out at 94%. The IC50 in test [4] (Homo sapiens, HAECT1) is 0.122 µM; in test [5] (Homo sapiens, HAECT1, Ad5-wt-ERα infected HAECT-1 cells, IL-1 stimulated, read-out: Interleukin-6 IC50) it was 0.035 µM. The “Interleukin-6 Efficacy” value in test [5] (relative to the maximal inhibition observed with E2) was 45%. For the same compound, the “electron microscopy of small intestinal enterocyte architecture, tight junctions, organelle structure” value in test [6] (50 mg/kg) was “greater preservation”. For the same compound, the “prevention of lethality (Kaplan-Meier survival)” value in test [6] (50 mg/kg orally daily from day 4, FIG. 2) is given as “highly effective in the prevention of lethality”. In test [6] (50 mg/kg, p<0.01 vs control, FIG. 4B), the “small bowel mucosal mass” value was determined as 76±21 mg/10 cm segment. For the same compound, the “levels of bacteremia and endotoxemia” value in test [6] (day 6 after first cyclophosphamide dose, FIG. 3) is given as “Reduced levels”. Besides, the “histopathologic injury score of gastrointestinal mucosa” value in test [6] (scale 0-4, 50 mg/kg, day 8, p=0.02 vs control, FIG. 4A) amounted to 0.6±0.1.
